{"source": "paper PMC10017027", "about": "“Design and Synthesis of Novel HIV-1 NNRTIs with Bicyclic Cores and with Improved Physicochemical Properties” (Journal of Medicinal Chemistry, 2023)", "key": {"HIV-1 HXB2 K103N variant": {"tested_on": "HIV-1 HXB2 K103N variant", "test": "MT-4 antiviral cytopathic effect assay, HXB2-K103N", "format": "cell-based", "procedure": "The prepared compounds were tested for their anti-HIV-1 activity (Table 1). A viral cytopathic effect assay in MT-4 cells with HIV-1 IIIB virus was used to determine compound potency (EC50, 50% cell viability) in protecting virus induced cell killing. Compound cytotoxicity was assessed in MT-4 cells in the absence of virus (CC50, 50% cytotoxicity). […] ETV contains bromo and amino substitutions on the DAPY core. […] Likely, with the smaller cyano arm I in 1, 3, and 5, the cores could be further elaborated to optimize the compound position in the pocket and to improve potency.\n(§1) Compounds were tested in a high-throughput 384-well assay format for their ability to inhibit the virus replication-induced cytopathic effect in MT-4 cell cultures acutely infected with HIV-1 (IIIB strain), HXB2, HXB2-K103N, and HXB2-Y181C. Compounds were serially diluted (1:3) in DMSO on 384-well polypropylene plates and further diluted 200-fold into complete RPMI media (10% FBS, 1% P/S) using Biotek Micro Flow and an Agilent ECHO acoustic dispenser. Each plate contained up to eight test compounds, with negative (no drug control) and 5 μM AZT positive controls. MT-4 cells were further diluted in complete RPMI media and added to each plate using a Micro-Flo dispenser. After five days of incubation in a humidified and temperature-controlled incubator (37 °C), Cell Titer Glo (Promega) was added to the assay plates to quantify the amount of […]. EC50 and CC50 values were defined as the compound concentration that causes a 50% decrease in luminescence signal and were calculated using a sigmoidal dose-response model to generate curve fits."}, "HIV-1 HXB2": {"tested_on": "HIV-1 HXB2", "test": "MT-4 antiviral cytopathic effect assay, HXB2 wild-type virus", "format": "cell-based", "details": "Human immunodeficiency virus 1, MT4; HIV-1 HXB2 wild-type, MT-4 cells; read-out: EC50 HXB2", "procedure": "The prepared compounds were tested for their anti-HIV-1 activity (Table 1). A viral cytopathic effect assay in MT-4 cells with HIV-1 IIIB virus was used to determine compound potency (EC50, 50% cell viability) in protecting virus induced cell killing. Compound cytotoxicity was assessed in MT-4 cells in the absence of virus (CC50, 50% cytotoxicity).\nas §1"}, "[1]": {"test": "MDCK permeability assay (A to B)", "format": "in vitro ADME, Canine", "details": "dog, MDCK", "description": "Compounds were further tested in a Madin–Darby Canine Kidney (MDCK) assay to evaluate their potential for oral absorption. […] Additionally, there was no trend for better permeability when comparing arm I versus arm II when matched with the same core. The size of the B ring had the greatest influence on Papp with the trend being five-membered > six-membered > seven-membered rings (Table 1).\ncMdr1-KO cells were maintained in Dulbecco’s modified Eagle’s medium (DMEM) with sodium pyruvate and GlutaMax, supplemented with 1% Pen/Strep and 10% fetal bovine serum in an incubator set at 37 °C, 90% humidity, and 5% CO2. MDCKII- cMdr1-KO cells were grown to confluence over 3 days on 96-well PET plates with 1 μm pore size, polyester membrane (Corning 3392). Experiments were run using HBSS donor buffer from Invitrogen containing an additional 10 mM HEPES, 15 mM glucose, and 0.1% BSA adjusted to pH 7.4. The receiver well had HBSS buffer supplemented with 1% BSA, 10 mM HEPES, 15 mM glucose, and the pH was adjusted to 7.4. TEER values were read to test membrane integrity at the beginning of the assay. The experiment was started by the addition of dosing solutions containing test compounds. Samples were taken from the donor compartment at 0/120 min and from the receiver compartment at 120 min. Each compound was tested in two separate replicate wells. All samples were immediately collected in a 72:8:20 MeCN/MeOH:H2O mix to precipitate protein and stabilize the test compounds. Cells were dosed on the apical side to determine forward (A to B) permeability. To test for non-specific binding and compound instability, the total amount of drug was quantified at the end of the experiment and compared to the material present in the original dosing solution as a percentage of recovery. Samples were analyzed by RF-QToF."}}, "note": "pEC50: −log10 of the molar value."}
{"compound": "Cc1cc(C#N)cc(C)c1N1CC(=O)Nc2cnc(Nc3ccc(C#N)cc3)nc21", "note": "[Compound 3, 4-(2-((4-Cyanophenyl)amino)-6-oxo-6,7-dihydropteridin-8(5H)-yl)-3,5-dimethylbenzonitrile]", "values": [{"measurement": "pEC50", "setting": "HIV-1 HXB2 K103N variant; Human immunodeficiency virus 1, HXB2, read-out: EC50 K103N", "value": 7.34}, {"measurement": "K103N (FC)", "setting": "HIV-1 HXB2 K103N variant; fold change: ratio of potency against HXB2 K103N and parental HXB2", "value": 5.6}, {"measurement": "potency against K103N mutated strain", "setting": "HIV-1 HXB2 K103N variant; preliminary biological data, in words", "value": "high potency"}, {"measurement": "K103N (FC)", "setting": "HIV-1 HXB2 K103N variant; supplement CSV, fold change vs HXB2", "value": 5.6}, {"measurement": "pEC50", "setting": "HIV-1 HXB2", "value": 8.09}, {"measurement": "Papp A→B at 120 min", "setting": "[1]; supplement CSV", "value": 4.1, "unit": "×10⁻⁶ cm/s"}, {"measurement": "Papp A→B at 120 min", "setting": "[1]; apparent permeability coefficient, A to B, pH 7.4", "value": 4.1, "unit": "×10⁻⁶ cm/s"}]}
